Reference: ChEMBL document CHEMBL1201862, “PubChem BioAssay data set” (2004)
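Exposure lasted 48 hours, with cells grown in 96-well plates and compounds tested at five concentrations. At the GI50, growth is halved.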 Active and inactive are the calls of the source. Rule as the data show it: active = GI50 up to about 1.1 µM and inactive = higher.

Tests used:
Assay in all cases: growth of human tumour cells (NCI), 48 h
[1] = test system: Malme-3M
[2] = test system: IGROV-1
[3] = test system: CAKI-1
[4] = test system: HCT-15
[5] = test system: SK-OV-3
[6] = test system: HCT-116
[7] = test system: SN12C
[8] = test system: MDA-N
[9] = test system: OVCAR-5
[10] = test system: HOP-92
[11] = test system: MDA-MB-435
[12] = test system: U-251
[13] = test system: DU-145
[14] = test system: CCRF-CEM
[15] = test system: MDA-MB-231
[16] = test system: K562
[17] = test system: RPMI-8226
[18] = test system: SK-MEL-5
[19] = test system: OVCAR-3
[20] = test system: UACC-62
[21] = test system: 786-0
[22] = test system: T47D
[23] = test system: SK-MEL-28
[24] = test system: SNB-75
[25] = test system: A549
[26] = test system: MCF7
[27] = test system: SF-539
[28] = test system: HCC 2998
[29] = test system: OVCAR-8
[30] = test system: ACHN
[31] = test system: PC-3
[32] = test system: UACC-257
[33] = test system: M14
[34] = test system: Hs-578T
[35] = test system: OVCAR-4
[36] = test system: HL-60
[37] = test system: KM12
[38] = test system: HT-29
[39] = test system: SK-MEL-2
[40] = test system: HOP-62
[41] = test system: RXF 393
[42] = test system: TK-10
[43] = test system: A498
[44] = test system: NCI-H460
[45] = test system: NCI-H522
[46] = test system: NCI-H226
[47] = test system: SF-268
[48] = test system: SR
[49] = test system: SNB-19
[50] = test system: MOLT-4
[51] = test system: EKVX
[52] = test system: UO-31
[53] = test system: COLO 205
[54] = test system: SF-295
[55] = test system: LOX IMVI
[56] = test system: NCI-H23

## CC(C)(C)NC(NC(C)(C)C)=C(/C=C(/Cl)[N+](=O)[O-])[N+](=O)[O-]
[1]
  GI50: 10.3 µM (inactive)
[2]
  GI50: 51.8 µM (inactive)
[3]
  GI50: > 100 µM (inactive)
[4]
  GI50: 73.1 µM
[5]
  GI50: > 100 µM (inactive)
[6]
  GI50: 34.3 µM (inactive)
[7]
  GI50: > 100 µM (inactive)
[8]
  GI50: 26.2 µM (inactive)
[9]
  GI50: > 100 µM (inactive)
[10]
  GI50: > 100 µM (inactive)
[11]
  GI50: 19.5 µM (inactive)
[12]
  GI50: > 100 µM (inactive)
[13]
  GI50: > 100 µM (inactive)
[14]
  GI50: 67.8 µM (inactive)
[15]
  GI50: > 100 µM (inactive)
[16]
  GI50: 55.1 µM (inactive)
[17]
  GI50: 67.3 µM (inactive)
[18]
  GI50: 44.9 µM (inactive)
[19]
  GI50: 20 µM (inactive)
[20]
  GI50: 42.6 µM (inactive)
[21]
  GI50: 34.7 µM (inactive)
[22]
  GI50: 68.5 µM (inactive)
[23]
  GI50: > 100 µM (inactive)
[24]
  GI50: 0.0395 µM (active)
[25]
  GI50: 25.7 µM (inactive)
[26]
  GI50: 4.46 µM (inactive)
[27]
  GI50: 38.3 µM (inactive)
[28]
  GI50: 62.1 µM (inactive)
[29]
  GI50: 38.7 µM (inactive)
[30]
  GI50: 65.3 µM (inactive)
[31]
  GI50: 45.6 µM (inactive)
[32]
  GI50: 94 µM (inactive)
[33]
  GI50: 27.7 µM (inactive)
[34]
  GI50: 56.9 µM (inactive)
[35]
  GI50: 17.1 µM (inactive)
[36]
  GI50: 29.5 µM (inactive)
[37]
  GI50: > 100 µM (inactive)
[38]
  GI50: 41.8 µM (inactive)
[39]
  GI50: > 100 µM (inactive)
[40]
  GI50: > 100 µM (inactive)
[41]
  GI50: > 100 µM (inactive)
[42]
  GI50: > 100 µM (inactive)
[43]
  GI50: > 100 µM (inactive)
[44]
  GI50: 52.2 µM (inactive)
[45]
  GI50: > 100 µM (inactive)
[46]
  GI50: > 100 µM (inactive)
[47]
  GI50: 74.6 µM (inactive)
[48]
  GI50: 32.6 µM (inactive)
[49]
  GI50: > 100 µM (inactive)
[50]
  GI50: 48.3 µM (inactive)
[51]
  GI50: > 100 µM (inactive)
[52]
  GI50: > 100 µM (inactive)
[53]
  GI50: 26.4 µM (inactive)
[54]
  GI50: > 100 µM (inactive)
[55]
  GI50: > 100 µM (inactive)
[56]
  GI50: 42.7 µM (inactive)
